# Test results published in US20130267494A1, “1,4-OXAZEPANE DERIVATIVES” (priority 2010, published 2013).
# Structures can show the parent of a compound that is named as a salt.
# Experiments:
# Format in all cases: cell-based
# [1] = target: T1, human dopamine transporter (Homo sapiens, UniProt Q01959); assay: Inhibitory action on human dopamine transporter ([3H]-dopamine uptake in CHO cells); settings: relative to inhibitory activity of 100 μM Nomifensine as 100%
# T1 construct: expressed in transfected cells
# T1 sequence (Q01959 whole entry): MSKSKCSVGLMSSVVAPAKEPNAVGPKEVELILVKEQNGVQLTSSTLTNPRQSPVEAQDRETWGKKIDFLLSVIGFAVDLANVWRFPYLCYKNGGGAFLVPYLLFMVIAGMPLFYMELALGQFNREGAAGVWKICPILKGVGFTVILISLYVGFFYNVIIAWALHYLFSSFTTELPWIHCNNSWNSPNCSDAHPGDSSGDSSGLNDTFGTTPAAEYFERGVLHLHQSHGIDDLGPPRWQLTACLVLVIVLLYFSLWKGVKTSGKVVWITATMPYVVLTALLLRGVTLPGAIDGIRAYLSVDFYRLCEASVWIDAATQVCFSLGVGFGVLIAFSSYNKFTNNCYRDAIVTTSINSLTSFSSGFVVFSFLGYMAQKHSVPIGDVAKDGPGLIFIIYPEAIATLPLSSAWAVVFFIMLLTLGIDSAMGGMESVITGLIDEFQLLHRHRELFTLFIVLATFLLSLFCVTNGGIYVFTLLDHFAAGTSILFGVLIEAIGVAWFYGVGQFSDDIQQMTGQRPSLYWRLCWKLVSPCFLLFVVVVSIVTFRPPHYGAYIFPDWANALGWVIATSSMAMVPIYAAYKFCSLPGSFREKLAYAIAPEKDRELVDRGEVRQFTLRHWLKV
# Excerpt: SRα promoter contained in pTB1411 described in JP-A-H5-076385 was cleaved with restriction enzyme […](manufactured by TAKARA BIO INC.), blunt-ended, further cleaved with restriction enzyme EcoRI (manufactured by TAKARA BIO INC.), and fragmented. On the other hand, pCI vector was cleaved with restriction enzyme BglII (manufactured by TAKARA BIO INC.), blunt-ended with T4 DNA polymerase, and further cleaved with restriction enzyme EcoRI (manufactured by TAKARA BIO INC.). Into this site was inserted an SRa promoter fragment to give pCI-SRa. Then, pCI-SRa was cleaved with restriction enzyme ClaI (manufactured by TAKARA BIO INC.) and blunt-ended. Into this site was inserted a 1.63 Kb fragment obtained by cleaving pGFP-C1 (manufactured by TOYOBO) with restriction enzyme Bsu36I (manufactured by Daiichi Pure Chemicals Co., Ltd.) followed by blunt-ending, whereby pMSRα neo was prepared. Human dopamine transporter cDNA was amplified from human substantia nigra cDNA library by PCR, and inserted into the pCRII vector (manufactured by Invitrogen). The base sequence was confirmed, modified and subcloned to pMSRα neo, whereby a human dopamine transporter expression plasmid was constructed.
# (§1) The monoamine transporter expression plasmids thus prepared were introduced into CHO-K1 cells using FuGENE6 (manufactured by Roche Diagnostics) and according to the attached protocol, whereby each expressing cell was established.
# CHO cells stably expressing human dopamine transporter were used for the measurement of human dopamine transporter inhibitory activity. Unless otherwise indicated, these CHO cells were cultured in Ham/F12 medium (Invitrogen) containing 10% fetal bovine serum (MOREGATE).
# (§2) One day before the assay, the cultured cells that reached almost confluent were rinsed with PBS (Invitrogen), detached with Trypsin/EDTA (Invitrogen), and collected by a centrifugal operation. The obtained cells were counted, and diluted to 3×10^5 cells per 1 mL medium, and the mixture was dispensed to a 96 well white plate (Corning) at 100 μL per well, and cultured overnight in a CO2 incubator.
# (§3) On the day of the test, an assay buffer (126 mM NaCl, 4.95 mM KCl, 1.26 mM KH2PO4, 1.26 mM MgSO4, 10 mM HEPES, 2.32 mM CaCl2, 5.52 mM Glucose, 0.5% BSA) was prepared, the medium in the cell plate was removed and the assay buffer was added by 80 μL. A test compound was diluted with the assay buffer to a 10-fold concentration of the final concentration, and the mixture was dispensed to a 96 well polypropylene plate. The diluted test compound was dispensed to the cell plate by 10 μL. [3H]-Dopamine (GE Healthcare) was diluted with the assay buffer to 200 nM, cold dopamine was diluted to 10 μM, and the mixture was dispensed to the cell plate by 10 μL. At 60 min from [3H]-dopamine addition, the assay buffer was removed by suction, and the plate was washed twice with 150 μL of PBS (Invitrogen) per well. Microscinti20 (PerkinElmer) was dispensed to each well by 100 μL, and the mixture was stirred for about 30 min. The radioactivity was measured by TopCount (PerkinElmer).
# The inhibitory activity of each compound (10 μM) was calculated as a relative activity value based on the inhibitory activity of 100 μM Nomifensine (dopamine transporter inhibitor) as 100%.
# The inhibitory activity of each compound (1 μM) was m calculated as a relative activity value based on the inhibitory activity of 100 μM Nomifensine (dopamine transporter inhibitor) as 100%.
# [2] = target: T2, human norepinephrine transporter (Homo sapiens, UniProt P23975); assay: Inhibitory action on human norepinephrine transporter ([3H]-norepinephrine uptake in CHO cells); settings: relative to inhibitory activity of 10 μM DMI as 100%
# T2 construct: expressed in transfected cells
# T2 sequence (P23975 whole entry): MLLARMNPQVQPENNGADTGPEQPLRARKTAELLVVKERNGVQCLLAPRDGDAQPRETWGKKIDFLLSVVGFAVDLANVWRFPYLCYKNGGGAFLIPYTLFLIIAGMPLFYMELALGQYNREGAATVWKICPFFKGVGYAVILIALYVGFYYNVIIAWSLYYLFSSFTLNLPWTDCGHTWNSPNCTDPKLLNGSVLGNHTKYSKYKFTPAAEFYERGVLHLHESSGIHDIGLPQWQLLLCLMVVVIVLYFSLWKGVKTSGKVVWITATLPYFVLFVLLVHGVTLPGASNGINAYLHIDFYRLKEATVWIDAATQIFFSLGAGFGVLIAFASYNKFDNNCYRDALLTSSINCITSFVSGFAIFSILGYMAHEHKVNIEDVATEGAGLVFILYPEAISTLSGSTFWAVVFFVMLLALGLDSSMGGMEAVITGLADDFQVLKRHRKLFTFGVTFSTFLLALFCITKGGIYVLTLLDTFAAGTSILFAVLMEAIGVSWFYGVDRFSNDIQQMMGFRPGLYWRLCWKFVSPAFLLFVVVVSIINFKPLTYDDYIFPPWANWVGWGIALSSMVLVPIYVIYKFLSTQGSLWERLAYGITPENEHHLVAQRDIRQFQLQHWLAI
# Excerpt: (§4) Human serotonin transporter cDNA was amplified from human brain cDNA library by PCR, and inserted into pCRII-TOPO vector (manufactured by Invitrogen). The base sequence was confirmed and modified, and subcloned to pcDNA3.1 vector (manufactured by Invitrogen), whereby a human serotonin transporter expression plasmid was constructed. Human norepinephrine transporter cDNA was purchased from Invitrogen, and the base sequence was confirm and modified, and subcloned to pcDNA3.1 vector, whereby a human norepinephrine transporter expression plasmid was constructed.
# as §1
# CHO cells stably expressing human norepinephrine transporter were used for the measurement of human norepinephrine transporter inhibitory activity. Unless otherwise indicated, these CHO cells were cultured in Ham/F12 medium (Invitrogen) containing 10% fetal bovine serum (MOREGATE).
# as §2, with “The” for “One day before the assay, the”
# as §3, with “Then,” for “On the day of the test,”, “[3H]-Norepinephrine” for “[3H]-Dopamine”, “nM,” for “nM, cold dopamine was diluted to 10 μM,”, “45” for “60”, “[3H]-norepinephrine” for “[3H]-dopamine”
# The inhibitory activity of each compound (10 μM) was calculated as a relative activity value based on the inhibitory activity of 10 μM DMI (norepinephrine transporter inhibitor) as 100%.
# The inhibitory activity of each compound (1 μM) was calculated as a relative activity value based on the inhibitory activity of 10 μM DMI (norepinephrine transporter inhibitor) as 100%.
# [3] = target: T3, human serotonin transporter (Homo sapiens, UniProt P31645); assay: Inhibitory action on human serotonin transporter ([3H]-5-hydroxytryptamine uptake in CHO cells); settings: relative to inhibitory activity of 10 μM Paroxetine as 100%
# T3 construct: expressed in transfected cells
# T3 sequence (P31645 whole entry): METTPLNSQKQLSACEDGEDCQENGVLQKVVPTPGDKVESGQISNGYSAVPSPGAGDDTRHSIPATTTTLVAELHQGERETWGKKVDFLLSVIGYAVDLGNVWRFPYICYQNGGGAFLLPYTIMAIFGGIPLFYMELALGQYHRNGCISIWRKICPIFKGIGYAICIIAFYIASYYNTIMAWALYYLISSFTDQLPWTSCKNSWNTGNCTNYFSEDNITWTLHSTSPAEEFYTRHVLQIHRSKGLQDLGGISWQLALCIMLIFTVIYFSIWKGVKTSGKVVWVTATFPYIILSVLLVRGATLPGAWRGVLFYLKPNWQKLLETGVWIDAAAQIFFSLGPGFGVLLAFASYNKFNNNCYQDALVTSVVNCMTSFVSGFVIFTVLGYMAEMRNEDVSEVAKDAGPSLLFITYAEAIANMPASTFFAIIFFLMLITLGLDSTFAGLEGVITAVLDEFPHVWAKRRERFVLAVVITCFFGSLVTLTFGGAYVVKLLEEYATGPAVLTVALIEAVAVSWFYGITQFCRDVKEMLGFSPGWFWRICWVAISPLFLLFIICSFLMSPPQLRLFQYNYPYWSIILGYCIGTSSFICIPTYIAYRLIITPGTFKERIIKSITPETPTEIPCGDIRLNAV
# Excerpt: as §4, §1
# CHO cells stably expressing a human serotonin transporter were used for the measurement of human serotonin transporter inhibitory activity. Unless particularly indicated, these CHO cells were cultured in a Ham/F12 medium (Invitrogen) containing 10% fetal bovine serum (MOREGATE).
# as §2, with “The” for “One day before the assay, the”, “medium,” for “medium, and”
# as §3, with “Then,” for “On the day of the test,”, “[3H]-5-Hydroxytryptamine” for “[3H]-Dopamine”, “nM,” for “nM, cold dopamine was diluted to 10 μM,”, “20” for “60”, “[3H]-5-hydroxytryptamine” for “[3H]-dopamine”
# The inhibitory activity of each compound (10 μM) was calculated as a relative activity value based on the inhibitory activity of 10 μM Paroxetine (serotonin transporter inhibitor) as 100%.
# In addition, the inhibitory activity of each compound (1 μM) was calculated as a relative activity value based on the inhibitory activity of 10 μM Paroxetine (serotonin transporter inhibitor) as 100%.
# [4] = CHO, compound 1 μM, read-out: inhibitory rate (%)
# [5] = CHO, compound 10 μM, read-out: inhibitory rate (%)
Compound,"inhibition at 1 µM [1, 4] [%]","inhibition at 1 µM [2, 4] [%]","inhibition at 1 µM [3, 4] [%]",inhibitory rate (%) ([1]; compound 1 μM),inhibitory rate (%) ([2]; compound 1 μM),inhibitory rate (%) ([3]; compound 1 μM),"inhibition at 10 µM [1, 5] [%]","inhibition at 10 µM [2, 5] [%]","inhibition at 10 µM ([3]; CHO, compound 10 μM, CHO cells expressing human serotonin transporter, read-out: inhibitory rate (%)) [%]"
"OC[C@@H]1CNCCO[C@H]1c1ccc(Cl)c(F)c1 [Example 301, [(6S,7R)-7-(4-chloro-3-fluorophenyl)-1,4-oxazepan-6-yl]methanol monohydrochloride]",10,100,52,,,,,,
"Cc1ccc(C2OCCNCC2CO)cc1Cl (stereo not drawn) [Example 406, [(6R*,7S*)-7-(3-chloro-4-methylphenyl)-1,4-oxazepan-6-yl]methanol monohydrochloride (retention time long)]",,,,22,98,82,,,
"CS(=O)(=O)C[C@@H]1CNCCOC1c1ccc(F)c(Cl)c1 (mixture of isomers) [Example 281, (6RS,7SR)-7-(3-chloro-4-fluorophenyl)-6-[(methylsulfonyl)methyl]-1,4-oxazepane monohydrochloride]",22,95,95,,,,,,
"O=C1CNC(=O)N1C[C@]1(c2ccc(Cl)c(Cl)c2)CCNCCO1 [Example 438, 3-{[(7R)-7-(3,4-dichlorophenyl)-1,4-oxazepan-7-yl]methyl}imidazolidine-2,4-dione monohydrochloride]",6,97,81,,,,,,
"O=C(NC[C@@H]1CNCCO[C@H]1c1ccc(Cl)c(Cl)c1)c1cccc(-c2noc(=O)[nH]2)c1 [Example 142, N-{[(6S,7R)-7-(3,4-dichlorophenyl)-1,4-oxazepan-6-yl]methyl}-3-(5-oxo-4,5-dihydro-1,2,4-oxadiazol-3-yl)benzamide monohydrochloride]",4,100,95,,,,,,
"CNC(=O)N(CCO)C[C@@H]1CNCCO[C@H]1c1ccc(Cl)c(Cl)c1 [Example 160, 1-{[(6S,7R)-7-(3,4-dichlorophenyl)-1,4-oxazepan-6-yl]methyl}-1-(2-hydroxyethyl)-3-methylurea monohydrochloride]",99,101,99,,,,,,
"CS(=O)(=O)C[C@@]1(O)CNCCO[C@@H]1c1ccc(Cl)c(F)c1 (racemic) [Example 538, (6RS,7RS)-7-(4-chloro-3-fluorophenyl)-6-[(methylsulfonyl)methyl]-1,4-oxazepan-6-ol monohydrochloride]",38,102,91,,,,,,

# Further lines, results first:
"inhibition at 1 µM [1, 4] [%]","inhibition at 1 µM [2, 4] [%]","inhibition at 1 µM [3, 4] [%]",inhibitory rate (%) ([1]; compound 1 μM),inhibitory rate (%) ([2]; compound 1 μM),inhibitory rate (%) ([3]; compound 1 μM),"inhibition at 10 µM [1, 5] [%]","inhibition at 10 µM [2, 5] [%]","inhibition at 10 µM ([3]; CHO, compound 10 μM, CHO cells expressing human serotonin transporter, read-out: inhibitory rate (%)) [%]",Compound
36,105,84,,,,,,,"CS(=O)(=O)NCCC[C@@H]1OCCNC[C@H]1c1ccc(Cl)c(Cl)c1 (racemic) [Example 520, N-{3-[(6RS,7SR)-6-(3,4-dichlorophenyl)-1,4-oxazepan-7-yl]propyl}methanesulfonamide monohydrochloride]"
46,99,29,,,,94,100,65,"OC[C@H]1OCCNC[C@H]1c1ccc(Cl)c(Cl)c1 (racemic) [Example 25, [(6RS,7SR)-6-(3,4-dichlorophenyl)-1,4-oxazepan-7-yl]methanol monohydrochloride]"
99,104,41,,,,,,,"CC(=O)NC[C@H]1OCCNC[C@H]1c1ccc(Cl)c(Cl)c1 [Example 453, N-{[(6R,7S)-6-(3,4-dichlorophenyl)-1,4-oxazepan-7-yl]methyl}acetamide monohydrochloride]"
75,96,84,,,,,,,"CS(=O)(=O)NC[C@@H]1CNCCO[C@H]1c1ccc(Cl)c(Cl)c1 [Example 34, N-{[(6S,7R)-7-(3,4-dichlorophenyl)-1,4-oxazepan-6-yl]methyl}methanesulfonamide monohydrochloride]"
